Data reported in publication PMC8903829 (eLife, 2022).
Read-outs that look alike come from different tables or passages of the source.

Experiments:
Scn8a^N1768D/+ mice = assay: Modified 6 Hz psychomotor seizure assay; assay type: in vivo, mouse
Description: (§1) Phenytoin was formulated in physiologic saline and was administered intraperitoneally (i.p.) using a 25-gauge needle at a dose volume of 10 mL/kg. All compounds were administered 2 hr prior to electrical seizure induction for all seizure models employed in this study.
Scn8a^N1768D/+heterozygous mice were tested at 5 weeks of age (p35). The modified 6 Hz seizure assay in Scn8a^N1768D/+heterozygous mice was adapted from the traditional 6 Hz assay psychomotor seizure assay to provide a measure of in vivo on target (NaV1.6 mediated) efficacy ([Barton et al., 2001]). The modified assay used a low frequency (6 Hz) but long-duration stimulation (3 s) to induce seizures. […] An electroshock (6 Hz, 12 mA) was delivered for 3 s (at 0.3-ms pulse interval) by corneal electrodes (Electro Convulsive Therapy Unit 57,800 from Ugo Basile). Immediately prior to the electroshock, the animals’ eyes were anesthetized with a drop of Alcaine (0.5% proparacaine hydrochloride).
An animal was considered protected in the assay upon prevention of GTC with hindlimb extension and was then scored ‘0’. An animal displaying GTC with hindlimb extension was considered not protected and is then scored ‘1’. The experimenter scoring the seizure behavior was blinded to the treatment.

[1] = Bioanalytical assessment of plasma and brain concentrations after rat DC-MES assay; assay type: in vivo; settings: Study18085, 2 mg/kg, Rat DC-MES
[2] = system: wild-type Sprague Dawley rats; assay: DC-Maximal electroshock seizure assay (DC-MES); assay type: in vivo, rat
Description: as §1
(§2) The maximal electroshock seizure (MES) assay has been extensively used in the search for anticonvulsant substances ([Löscher et al., 1991]; [Piredda et al., 1985]; [White et al., 1995]). The MES assay is sensitive to nonselective NaV inhibitors. It is considered a model for generalized tonic-clonic (GTC) seizures and provides an assessment of seizure spread. Briefly, an electroshock of direct current (DC) was delivered by corneal electrodes (Electro Convulsive Therapy Unit 57,800 from Ugo Basile). The parameters of stimulation were different between mice and rats. In CF1 mice aged 9–12 weeks, a direct current of 50 mA (60 Hz) was delivered for 0.2 s (pulse width of 0.5ms), whereas in Sprague Dawley (SD) rats aged 5–6 weeks, a direct current of 150 mA (60 Hz) was delivered for 0.3 s (pulse width of 0.5ms). Immediately prior to the electroshock, the animals’ eyes were anesthetized with a drop of Alcaine (0.5% proparacaine hydrochloride).
(§3) An animal was considered protected in the assay in the absence of a GTC with hindlimb extension and is then scored ‘0’. An animal displaying GTC with hindlimb extension was considered not protected and is then scored ‘1’. The experimenter scoring the seizure behavior was blinded to the treatment.

[3] = Bioanalytical assessment of plasma and brain concentrations after 6 Hz assay; assay type: in vivo, mouse
Description: (§4) Approximately 0.5 mL of blood was collected from each mouse at the end of the assay via cardiac puncture under deep anesthesia. The blood samples were collected in a syringe and transferred to tubes containing EDTA. Blood was stored at 4 °C until centrifuged within 30 min of collection. Plasma was harvested and placed on dry ice and stored in a freezer set to maintain a temperature of –70°C to –80°C until analysis. Brains were harvested immediately after blood collection and placed on dry ice prior to storage in a freezer set to maintain a temperature of –70°C to –80°C until analysis.
(§5) Extraction of plasma samples was carried out by protein precipitation using acetonitrile. Plasma samples (50 µL) were mixed with 50 µL of internal standard (IS) solution in water followed by addition of 10 µL of concentrated ortho-phosphoric acid and 200 µL of acetonitrile. Samples were vortexed for 30 seconds, centrifuged at 13,000 rpm for 20 min, decanted in to a 96-well plate, and further centrifuged at 4000 rpm for 20 min. The samples were analyzed by UHPLC-ESI-MS/MS as described below.
(§6) Prior to extraction, pre-weighed whole brains were homogenized in 1:1 acetonitrile/water (v/v) (4 mL per mouse brain) using an IKA T18 ULTRA-TURRAX Homogenizer at the setting of 4 for approximately 2 min. The homogenate was centrifuged at 13,000 rpm for 20 min and 50 µL of the supernatant were treated exactly as described above for plasma samples. […]
(§7) Samples were analyzed by UHPLC-ESI MS/MS using a TQ-5500 Sciex triple quadrupole mass spectrometer equipped with a Shimadzu Nexera UHPLC pump and auto-sampler system using an ACE C18 PFP, 2.50 × 50 mm, 1.7 µm particle size column and gradient elution consisting of solvent A (0.1% formic acid in water) and solvent B (0.1% formic acid in acetonitrile) starting at 20% B from 0 min to 0.4 min and then increased to 100% B from 0.4 min to 0.6 min. At 2.0 min, the mobile phase composition was switched back to […] for 1 min. The flow rate used throughout the experiment was […]. […] The UHPLC-ESI MS/MS system was controlled by Analyst 1.6.
(§8) Sample concentrations were determined using a linear calibration function, weighted 1 /X, generated by the regression of analyte to IS peak area ratios in the standard samples to their respective concentrations. Acceptance criteria for the analytical run required that the back calculated values of the standards and the QC samples fell within ±20% of their nominal values, except for the lowest standard or lower limit of quantitation (LLOQ), for which the acceptance criterion was ±25%. At least 6 out of 12 standard points had to show back-calculated values within ±20% of their nominal concentrations for the calibration to be accepted. At least three QC samples, one at each level, had to show back-calculated values within ±20% of their nominal concentrations for the whole sample batch to be valid.

wild-type mice (CF-1) = assay: DC-Maximal electroshock seizure assay (DC-MES); assay type: in vivo, mouse
Description: as §1, §2, §3

Sprague Dawley rats = assay: Observation of potential adverse behavior (behavioral signs) in the rat DC-MES studies; assay type: in vivo; settings: Sprague Dawley, rat, in vivo, 2 hr
Description: Animals were observed by the scientist(s) responsible for dosing for the first 30 min after dosing for and again at the time of assay (2 hr post dose) for signs of abnormal behavior.

[4] = Bioanalytical assessment of plasma and brain concentrations after mouse DC-MES assay; assay type: in vivo; settings: mouse, intraperitoneal, WT mouse DC-MES acute
Description: as §4, §5, §6, §7, §8

[5] = Study16042, 1 mg/kg, SCN8A mouse 6HZ
[6] = Study16042, 3 mg/kg, SCN8A mouse 6HZ
[7] = Study16042, 10 mg/kg, SCN8A mouse 6HZ
[8] = Study16042, 30 mg/kg, SCN8A mouse 6HZ
[9] = Study16042, 56 mg/kg, SCN8A mouse 6HZ
[10] = Study16189, 10 mg/kg, SCN8A mouse 6HZ
[11] = Study16189, 30 mg/kg, SCN8A mouse 6HZ
[12] = Study16202, 1 mg/kg, P75, SCN8A mouse 6HZ
[13] = Study16202, 3 mg/kg, P75, SCN8A mouse 6HZ

SMILES: O=C1NC(=O)C(c2ccccc2)(c2ccccc2)N1 [PHT]
- SCN8A mouse 6HZ Fraction of animals seizing (Scn8a^N1768D/+ mice; Study16042, 1 mg/kg): 1
- SCN8A mouse 6HZ Fraction of animals seizing (Scn8a^N1768D/+ mice; Study16042, 3 mg/kg): 0.75
- SCN8A mouse 6HZ Fraction of animals seizing (Scn8a^N1768D/+ mice; Study16042, 10 mg/kg): 0.25
- SCN8A mouse 6HZ Fraction of animals seizing (Scn8a^N1768D/+ mice; Study16042, 30 mg/kg): 0
- SCN8A mouse 6HZ Fraction of animals seizing (Scn8a^N1768D/+ mice; Study16042, 56 mg/kg): 0
- SCN8A mouse 6HZ Fraction of animals seizing (Scn8a^N1768D/+ mice; Study16189, 10 mg/kg): 0.15
- SCN8A mouse 6HZ Fraction of animals seizing (Scn8a^N1768D/+ mice; Study16189, 30 mg/kg): 0
- SCN8A mouse 6HZ Fraction of animals seizing (Scn8a^N1768D/+ mice; Study16202, 1 mg/kg, P75): 1
- SCN8A mouse 6HZ Fraction of animals seizing (Scn8a^N1768D/+ mice; Study16202, 3 mg/kg, P75): 0.858
- Mean [Brain] [1]: 1.841 µM
- Mean [Palsma] [1]: 3.4567 µM
- Rat DC-MES Fraction of animals seizing ([2]; Study18085, 2 mg/kg): 0.667
- Mean [Brain] [3, 5]: 2.665 µM
- Mean [Palsma] [3, 5]: 1.798 µM
- Mean [Brain] [3, 6]: 11.7685 µM
- Mean [Palsma] [3, 6]: 7.584 µM
- Mean [Brain] [3, 7]: 38.4981 µM
- Mean [Palsma] [3, 7]: 32.6675 µM
- Mean [Brain] [3, 8]: 120.646 µM
- Mean [Palsma] [3, 8]: 92.6612 µM
- Mean [Brain] [3, 9]: 109.171 µM
- Mean [Palsma] [3, 9]: 127.343 µM
- Mean [Brain] [3, 10]: 29.4623 µM
- Mean [Palsma] [3, 10]: 26.0411 µM
- Mean [Brain] [3, 11]: 76.4798 µM
- Mean [Palsma] [3, 11]: 59.0466 µM
- Mean [Brain] [3, 12]: 2.628 µM
- Mean [Palsma] [3, 12]: 2.477 µM
- Mean [Brain] [3, 13]: 7.154 µM
- Mean [Palsma] [3, 13]: 7.163 µM

SMILES: O=C1NC(=O)C(c2ccccc2)(c2ccccc2)N1 [phenytoin, Phenytoin]
- WT mouse DC-MES acute Fraction of animals seizing (wild-type mice (CF-1); Study16130, 5 mg/kg): 0.5714
- WT mouse DC-MES acute Fraction of animals seizing (wild-type mice (CF-1); Study16130, 10 mg/kg): 0
- WT mouse DC-MES acute Fraction of animals seizing (wild-type mice (CF-1); Study17131, 2 mg/kg): 0.6667
- WT mouse DC-MES acute Fraction of animals seizing (wild-type mice (CF-1); Study17136, 2 mg/kg): 0.7143
- WT mouse DC-MES acute Fraction of animals seizing (wild-type mice (CF-1); Study17136, 5 mg/kg): 0.625
- EC50 (wild-type mice (CF-1); WT mouse DC-MES, 2 hr post dose (oral; phenytoin i.p.), read-out: brain EC50): 13 µM
- EC50 (Scn8a^N1768D/+ mice; Mus musculus, Scn8a^N1768D/+ 6 Hz model, 2 hr post dose (oral; phenytoin i.p.), read-out: brain EC50): 18 µM
- minimal plasma concentration provoking behavioral signs (BSC) (Sprague Dawley rats): 11 µM
- concentration at 2 h ([4]; brain, 2 mg/kg, Study17131, 2 mg/kg, read-out: Mean [Brain]): 6.12 µM
- concentration at 2 h ([4]; brain, 2 mg/kg, Study17136, 2 mg/kg, read-out: Mean [Brain]): 3.6 µM
- concentration at 2 h ([4]; brain, 5 mg/kg, Study16130, 5 mg/kg, read-out: Mean [Brain]): 17.9 µM
- concentration at 2 h ([4]; brain, 5 mg/kg, Study17136, 5 mg/kg, read-out: Mean [Brain]): 10.9 µM
- concentration at 2 h ([4]; brain, 10 mg/kg, Study16130, 10 mg/kg, read-out: Mean [Brain]): 38.3 µM
- concentration at 2 h ([4]; plasma, 2 mg/kg, Study17131, 2 mg/kg, read-out: Mean [Palsma]): 3.42 µM
- concentration at 2 h ([4]; plasma, 2 mg/kg, Study17136, 2 mg/kg, read-out: Mean [Palsma]): 3.65 µM
- concentration at 2 h ([4]; plasma, 5 mg/kg, Study16130, 5 mg/kg, read-out: Mean [Palsma]): 16.1 µM
- concentration at 2 h ([4]; plasma, 5 mg/kg, Study17136, 5 mg/kg, read-out: Mean [Palsma]): 11.5 µM
- concentration at 2 h ([4]; plasma, 10 mg/kg, Study16130, 10 mg/kg, read-out: Mean [Palsma]): 30.7 µM
- EC50 ([2]; WT rat DC-MES (oral; phenytoin i.p.), read-out: plasma EC50): 4.5 µM
- EC50 ([2]; WT rat DC-MES, 2 hr post dose (oral; phenytoin i.p.), read-out: brain EC50): 2.6 µM
